Data as given in patent US8466290B2, “STAT3 inhibitor containing quinolinecarboxamide derivative as active ingredient” (Pharma IP General Incorporated Association, priority 2008, dated 2013).
Like-named read-outs stand apart in the source and are kept apart here.

What was measured:
[1] = tested on: STAT3; test: STAT3 transcription inhibition test (reporter gene method, oncostatin M stimulation); type: cell-based; details: compound at 100 μM, STAT3 reporter HeLa stable cell line, oncostatin M 10 ng/mL, 4 hours; for inhibition at 100 µM: Homo sapiens, read-out: STAT3 transcription inhibitory activity (%)
Protocol: The inhibition of STAT3 transcription was evaluated by using STAT3 reporter HeLa stable cell line (Panomics Inc., catalog No. RC0003), a cell line for the reporter gene method, and performing the following method according to the appendix included therein.
STAT3 reporter HeLa stable cell line subcultured and maintained in a Dulbecco's modified Eagle's medium (DMEM) containing 10% fetal bovine serum, 100 units/mL penicillin, and 100 μg/mL streptomycin was inoculated at a concentration of 40000 cells/well to a 96-well plate (white) and attached to the plate by overnight incubation at 37° C. under 5% CO2. After addition of each evaluation compound adjusted to various concentrations (adjusted with a DMSO solution), the cells were precultured for 1 hour. Then, oncostatin M for activating STAT3 was added at a final concentration 10 ng/mL, and the cells were further cultured at 37° C. under 5% CO2 for 4 hours. Luciferase activity derived from the cells was determined using Steady-Glo Luciferase Assay System (Promega Corp.), and STAT3 transcriptional activity scores were calculated according to the following formula: STAT3 transcriptional activity score (%)=100×(Lchem−L0)/(LDMSO−L0) Lo: luminescence intensity obtained without stimulation with oncostatin M Lchem: luminescence intensity obtained by the addition of a test sample LDMSO: luminescence intensity obtained by the addition of only a solvent for dissolving a test sample

[2] = tested on: MDA-MB-435S; test: MDA-MB-435S cell growth inhibitory activity; type: cell-based; details: for inhibition at 20 µM: Homo sapiens, read-out: Cell growth inhibitory activity (%)
Protocol: […] Each well was washed three times with a medium. Then, after addition of 100 μL/well of a medium and 20 μL/well of CellTiter 96 AQueous One Solution Reagent (Promega Corp.), the cells were incubated at 37° C. for 2 hours in the presence of 5% CO2.

[3] = tested on: Human lymphoma SCC-3 cells; test: SCC-3 cell growth inhibition test (MTT method); type: cell-based; details: 72-hour culture, read-out: Cell growth inhibitory activity (IC50: μM)
Protocol: Simultaneously with cell inoculation, each test compound diluted to various concentrations with an RPMI medium was added to each well.

[4] = tested on: human lymphoma SCC-3 cells; test: Evaluation using human lymphoma-transplanted nude mice; details: SCC-3 cancer-bearing nude mice; for T/C (%): tumor volume ratio vs control
Protocol: 1×10^6 human lymphoma SCC-3 cells (containing Matrigel) were subcutaneously transplanted to the flank part of each 6-week-old male nude mouse (BALB/cA-nu/nu, CLEA Japan, Inc.). After the transplantation, the tumor volumes [major axis (mm) and minor axis (mm)] of the SCC-3 cancer-bearing mice were measured using an electronic vernier caliper (CD-10, Mitutoyo Corp.), and tumor volumes [mm^3: (major axis)x(minor axis)^2/2] were calculated. SCC-3 cancer-bearing mice whose tumor volume reached 50 to 300 mm^3 were selected and divided based on the tumor volumes into groups each containing 5 individuals. A test compound was suspended in a 0.5% methylcellulose solution and orally administered at a dose of 0.01 mL/g body weight once a day for 5 days (Day 0 (administration initiation day) to Day 4). To a control group, none was administered. The tumor volumes of the SCC-3 cancer-bearing mice were measured every day from the initiation of test compound administration to evaluate antitumor effect. The antitumor effect was assessed by calculating T/C (%) values according to the following formula:
V: tumor volume on every assay day
V0: tumor volume on the administration initiation day (V/V0 of the test compound group)/(V/V0 of the control group)×100

[5] = 40 mg/kg orally once a day for 5 days
[6] = 160 mg/kg orally once a day for 5 days

With `O=C(Nc1nnc(-c2ccco2)o1)c1cc(-c2ccccc2)nc2ccc(OC(F)(F)F)cc12` [Ia-71, N-[5-(2-furyl)-1,3,4-oxadiazol-2-yl]-2-phenyl-6-trifluoromethoxy-4-quinolinecarboxamide] the inhibition at 100 µM [1] was > 100%, the inhibition at 20 µM ([2]; 72 h) was 85% and the IC50 ([3]; Homo sapiens) was 0.3 µM.

`O=C(Nc1nnc(-c2ccco2)o1)c1cc(-c2ccccc2)nc2c(Cl)cc(Cl)cc12` [Ia-74, 6,8-dichloro-N-[5-(2-furyl)-1,3,4-oxadiazol-2-yl]-2-phenyl-4-quinolinecarboxamide] gave an inhibition at 100 µM [1] of 97%, an inhibition at 20 µM ([2]; compound at 20 μM, 72 hours) of 82% and an IC50 ([3]; Homo sapiens) of 0.7 µM.

`O=C(Nc1nnc(-c2ccco2)o1)c1cc(-c2ccc(Cl)s2)nc2ccccc12` [Ia-19, 2-(5-chloro-2-thienyl)-N-[5-(2-furyl)-1,3,4-oxadiazol-2-yl]-4-quinolinecarboxamide] gave an inhibition at 100 µM [1] of 77%, an inhibition at 20 µM ([2]; compound at 20 μM, 72 hours) of 98% and an IC50 ([3]; Homo sapiens) of 2.1 µM.

Work on `O=C(Nc1nnc(-c2ccco2)o1)c1cc(-c2ccccc2)nc2cc(Br)ccc12` [Ia-24, 7-bromo-N-[5-(2-furyl)-1,3,4-oxadiazol-2-yl]-2-phenyl-4-quinolinecarboxamide] yielded an inhibition at 100 µM [1] of 72%, an inhibition at 20 µM ([2]; compound at 20 μM, 72 hours) of 94% and an IC50 ([3]; Homo sapiens) of 1.9 µM.

With `O=C(Nc1nnc(-c2ccco2)o1)c1cc(-c2ccccc2)nc2cc(Cl)ccc12` [Ia-72, 7-chloro-N-[5-(2-furyl)-1,3,4-oxadiazol-2-yl]-2-phenyl-4-quinolinecarboxamide] the inhibition at 100 µM [1] was > 100% and the IC50 ([3]; Homo sapiens) was 2.2 µM.

`CC(C)(C)OC(=O)c1cccc(-c2cc(C(=O)Nc3nnc(-c4ccco4)o3)c3ccccc3n2)c1` [Ia-44, 2-(3-tert-butoxycarbonylphenyl)-N-[5-(2-furyl)-1,3,4-oxadiazol-2-yl]-4-quinolinecarboxamide] was tested, and the inhibition at 100 µM [1] was > 100%, the inhibition at 20 µM ([2]; compound at 20 μM, 72 hours) was 99% and the IC50 ([3]; Homo sapiens) was 1.8 µM.

`N#Cc1ccc(-c2cc(C(=O)Nc3nnc(-c4ccco4)o3)c3ccccc3n2)cc1` [Ia-17, 2-(4-cyanophenyl)-N-[5-(2-furyl)-1,3,4-oxadiazol-2-yl]-4-quinolinecarboxamide] gave an inhibition at 100 µM [1] of 80%, an inhibition at 20 µM ([2]; compound at 20 μM, 72 hours) of 54% and an IC50 ([3]; Homo sapiens) of 4.6 µM.

`Cc1ccc(-c2cc(C(=O)Nc3nnc(-c4ccccc4)o3)c3ccccc3n2)cc1` [Ia-i, N-(5-phenyl-1,3,4-oxadiazol-2-yl)-2-(4-tolyl)-4-quinolinecarboxamide] showed an inhibition at 100 µM [1] of 85% and an IC50 ([3]; Homo sapiens) of 2.7 µM.

With `O=C(Nc1nnc(-c2ccco2)o1)c1cc(-c2cccc3ccccc23)nc2ccccc12` [Ia-60, N-[5-(2-furyl)-1,3,4-oxadiazol-2-yl]-2-(1-naphthyl)-4-quinolinecarboxamide] the inhibition at 100 µM [1] was > 100%, the inhibition at 20 µM ([2]; compound at 20 μM, 72 hours) was 100% and the IC50 ([3]; Homo sapiens) was 2.1 µM.

For `O=C(Nc1nnc(-c2ccco2)o1)c1cc(/C=C/c2ccccc2)nc2ccccc12` [Ia-65, N-[5-(2-furyl)-1,3,4-oxadiazol-2-yl]-2-trans-styryl-4-quinolinecarboxamide], the “STAT3 transcription inhibitory activity (%)” value [1] was >100%, the “Cell growth inhibitory activity (%)” value ([2]; compound at 20 μM, 72 hours) was 69% and the IC50 [3] was 2.6 µM.

`O=C(Nc1nnc(-c2ccco2)o1)c1cc(-c2ccc(Cl)cc2)nc2ccccc12` [Ia-47, 2-(4-chlorophenyl)-N-[5-(2-furyl)-1,3,4-oxadiazol-2-yl]-4-quinolinecarboxamide] was tested, and the inhibition at 100 µM [1] was > 100%, the inhibition at 20 µM ([2]; compound at 20 μM, 72 hours) was 82% and the IC50 ([3]; Homo sapiens) was 2 µM.

`CCCCOc1cc(C(=O)Nc2nnc(-c3ccco3)o2)c2ccccc2n1` [Ia-35, 2-(1-butoxy)-N-[5-(2-furyl)-1,3,4-oxadiazol-2-yl]-4-quinolinecarboxamide] showed an inhibition at 100 µM [1] of 57% and an IC50 ([3]; Homo sapiens) of 5.6 µM.

In the case of `Cc1cccc2c(C(=O)Nc3nnc(-c4ccco4)o3)cc(-c3ccccc3)nc12` [Ia-25, N-[5-(2-furyl)-1,3,4-oxadiazol-2-yl]-8-methyl-2-phenyl-4-quinolinecarboxamide], the inhibition at 100 µM [1] is reported as 77% and the IC50 ([3]; Homo sapiens) is reported as 6 µM.

`O=C(Nc1nnc(-c2ccco2)o1)c1cc(-c2ccc([N+](=O)[O-])cc2)nc2ccccc12` [Ia-52, N-[5-(2-furyl)-1,3,4-oxadiazol-2-yl]-2-(4-nitrophenyl)-4-quinolinecarboxamide] was tested, and the inhibition at 100 µM [1] was > 100%, the inhibition at 20 µM ([2]; compound at 20 μM, 72 hours) was 68% and the IC50 ([3]; Homo sapiens) was 2.2 µM.

For `O=C(Nc1nnc(-c2ccco2)o1)c1cc(-c2ccccc2)nc2ccccc12` [Ia-1, N-[5-(2-furyl)-1,3,4-oxadiazol-2-yl]-2-phenyl-4-quinolinecarboxamide], the inhibition at 100 µM [1] was 54%, the inhibition at 20 µM ([2]; 72 h) was 89% and the IC50 ([3]; Homo sapiens) was 5.9 µM. The “The number of deaths” value [4, 5] was 0/5, the “T/C (%)” value [4, 5] was 38% and the “The number of deaths” value [4, 6] was 0/5. The “T/C (%)” value [4, 6] was 40%.

In the case of `O=C(Nc1nnc(-c2ccco2)o1)c1cc(-c2ccccc2)nc2ccc(F)cc12` [Ia-67, 6-fluoro-N-[5-(2-furyl)-1,3,4-oxadiazol-2-yl]-2-phenyl-4-quinolinecarboxamide], the inhibition at 100 µM [1] is reported as 90% and the IC50 ([3]; Homo sapiens) is reported as 2.1 µM.

`Cc1cc(C)c2nc(-c3cccs3)cc(C(=O)Nc3nnc(-c4ccco4)o3)c2c1` [Ia-33, N-[5-(2-furyl)-1,3,4-oxadiazol-2-yl]-6,8-dimethyl-2-(2-thienyl)-4-quinolinecarboxamide] showed an inhibition at 100 µM [1] of 58%, an inhibition at 20 µM ([2]; compound at 20 μM, 72 hours) of 79% and an IC50 ([3]; Homo sapiens) of 1.3 µM.

With `CC(C)(C)OC(=O)c1ccc(-c2cc(C(=O)Nc3nnc(-c4ccco4)o3)c3ccccc3n2)cc1` [Ia-53, 2-(4-tert-butoxycarbonylphenyl)-N-[5-(2-furyl)-1,3,4-oxadiazol-2-yl]-4-quinolinecarboxamide] the inhibition at 100 µM [1] was > 100%, the inhibition at 20 µM ([2]; compound at 20 μM, 72 hours) was 100% and the IC50 ([3]; Homo sapiens) was 0.7 µM.

Work on `O=C(Nc1nnc(-c2ccco2)o1)c1cc(-c2ccccc2)nc2ccc(Cl)cc12` [Ia-22, 6-chloro-N-[5-(2-furyl)-1,3,4-oxadiazol-2-yl]-2-phenyl-4-quinolinecarboxamide] yielded an inhibition at 100 µM [1] of 76%, an inhibition at 20 µM ([2]; compound at 20 μM, 72 hours) of 98% and an IC50 ([3]; Homo sapiens) of 0.9 µM. The “The number of deaths” value [4, 5] was 0/5 and the “T/C (%)” value [4, 5] was 56%.

With `Cc1ccc2nc(-c3ccccc3)cc(C(=O)Nc3nnc(-c4ccco4)o3)c2c1` [Ia-70, N-[5-(2-furyl)-1,3,4-oxadiazol-2-yl]-6-methyl-2-phenyl-4-quinolinecarboxamide] the inhibition at 100 µM [1] was > 100%, the inhibition at 20 µM ([2]; compound at 20 μM, 72 hours) was > 100% and the IC50 ([3]; Homo sapiens) was 1.9 µM.

`O=C(Nc1nnc(-c2ccccc2)o1)c1cc(-c2ccccc2)nc2ccc(OC(F)(F)F)cc12` [Ia-111, N-(5-phenyl-1,3,4-oxadiazol-2-yl)-2-phenyl-6-trifluoromethoxy-4-quinolinecarboxamide] was tested, and the inhibition at 100 µM [1] was > 100% and the inhibition at 20 µM ([2]; compound at 20 μM, 72 hours) was 87%.
